Source: paper PMC9162272 (Journal of Cardiovascular Pharmacology, 2022)
Like-named read-outs stand apart in the source and are kept apart here.

Biological target: PDE-III (Homo sapiens, UniProt Q14432)
Test: Phosphodiesterase inhibition, purified PDE-III isozyme
Type: biochemical
Settings: for PDE-IV Versus PDE-III, IC50 Ratio: selectivity of inhibition of PDE-III over PDE-IV
[1] = read-out: PDE-III IC50, PDE-III isolated from human platelets, 30°C, 30 minutes, [3H]-cAMP 0.1 µM and cAMP 0.1 µM, duplicates

Chain of PDE-III (Q14432 whole entry): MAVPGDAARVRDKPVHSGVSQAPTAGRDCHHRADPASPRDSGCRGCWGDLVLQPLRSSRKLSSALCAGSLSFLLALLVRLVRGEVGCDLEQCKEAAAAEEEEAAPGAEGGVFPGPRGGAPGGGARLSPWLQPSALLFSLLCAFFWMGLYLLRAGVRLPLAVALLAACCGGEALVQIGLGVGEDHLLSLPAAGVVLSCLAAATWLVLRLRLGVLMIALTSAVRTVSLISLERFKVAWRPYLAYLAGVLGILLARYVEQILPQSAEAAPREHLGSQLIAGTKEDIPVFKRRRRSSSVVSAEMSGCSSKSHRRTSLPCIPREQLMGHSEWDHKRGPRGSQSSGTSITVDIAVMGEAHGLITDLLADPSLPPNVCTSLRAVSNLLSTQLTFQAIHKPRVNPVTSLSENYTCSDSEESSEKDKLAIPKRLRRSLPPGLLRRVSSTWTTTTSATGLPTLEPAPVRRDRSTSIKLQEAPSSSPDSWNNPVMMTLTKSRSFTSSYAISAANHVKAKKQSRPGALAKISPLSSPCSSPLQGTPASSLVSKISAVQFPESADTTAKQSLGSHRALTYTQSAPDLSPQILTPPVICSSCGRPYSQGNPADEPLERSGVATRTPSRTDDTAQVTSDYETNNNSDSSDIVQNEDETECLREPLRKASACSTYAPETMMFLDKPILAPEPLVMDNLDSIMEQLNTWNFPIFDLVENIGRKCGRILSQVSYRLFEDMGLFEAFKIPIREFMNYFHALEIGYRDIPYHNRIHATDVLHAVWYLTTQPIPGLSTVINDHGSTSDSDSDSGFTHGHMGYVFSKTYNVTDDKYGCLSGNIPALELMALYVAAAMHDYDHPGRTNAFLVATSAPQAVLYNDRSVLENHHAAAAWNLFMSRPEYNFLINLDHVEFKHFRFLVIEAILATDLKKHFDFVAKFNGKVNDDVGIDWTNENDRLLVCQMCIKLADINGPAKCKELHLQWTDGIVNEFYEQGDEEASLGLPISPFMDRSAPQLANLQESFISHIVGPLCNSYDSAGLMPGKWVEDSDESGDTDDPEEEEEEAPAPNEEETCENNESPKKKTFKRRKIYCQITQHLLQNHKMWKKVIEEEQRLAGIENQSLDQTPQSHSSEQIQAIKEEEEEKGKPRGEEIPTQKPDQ

SMILES | IC50 [1] [nM] | PDE-IV Versus PDE-III, IC50 Ratio | IC50 [nM]
CC(=O)Nc1ccc(C2=NNC(=O)C[C@H]2C)cc1 [OR-1896] | 94 | 3043 | –
C[C@@H]1CC(=O)NN=C1c1ccc(NN=C(C#N)C#N)cc1 [Levosimendan, levosimendan, reference compound] | – | 7619 | 2.1
C[C@@H]1CC(=O)NN=C1c1ccc(N)cc1 [OR-1855] | 5000 | 100 | –
